Where two headings read alike, the source gives them in different places.
Assays:
platelets = assay: ADP-induced platelet aggregation in platelet-rich plasma (photometric aggregometry); type: cell-based, human; conditions: 2 μM ADP; for maximal aggregation: mean±SEM; for maximal aggregation in response to ADP (median): citrated PRP, average of visits 1 and 2
Method: Venous blood was collected between 8:00 and 10:00 am, after an overnight fast, in tubes containing either 0.105 M sodium citrate (1 vol/9 vol) (BD Vacutainer®, Becton Dickinson, Le Pont de Claix, France) or 50 μg/mL lepirudine (Refludan®, Hoechst, Paris, France) using a 19-gauge needle and no tourniquet. The first 2 ml of blood was discarded. Platelet-rich plasma (PRP) was obtained by centrifugation at 1000 rpm for 10 min at room temperature. Autologous platelet-poor plasma, obtained by further centrifugation at 4000 rpm for 15 min, was used to adjust the platelet count of PRP to 250×10^9/L.
Aggregation studies were performed within 2 hours after blood collection. Aggregation was measured at 37° C. by using a photometric method on a four-channel aggregometer (Regulest® Amneville, France). A 280-μL aliquot of PRP was incubated for 3 min at 37° C. and then was stirred at 1100 rpm for 2 min before adding 20 μL of saline or ADP (Sigma-Aldrich, St Quentin Fallavier, France) at 1, 2 or 5 μM (final concentration). The platelet aggregation response was recorded for 5 min.

[1] = test system: iloprost-stimulated cAMP accumulation in platelets (P2Y12 regulation of adenylate cyclase); assay: Inhibition by ADP of iloprost-stimulated cAMP accumulation in platelets (EIA); type: cell-based; conditions: Homo sapiens, Platelet, citrated PRP, read-out: inhibition of iloprost-stimulated cAMP formation; for inhibition at 1 µM: 1 μM ADP; for inhibition at 2 µM: 2 μM ADP; for inhibition at 5 µM: 5 μM ADP
Method: Platelet cAMP content was measured in 20 selected subjects by incubating 270 μL of PRP with 10 μL of a solution of the stable prostacyclin analog iloprost (20 μg/L, final concentration) (Ilomédine®, Schering-Plough) for 1 min, with stirring, then adding 20 μL of saline or ADP (1, 2 or 5 μM). The reaction was stopped 3 min later by adding 20 μL of 12% trichloroacetic acid. CAMP was then extracted and measured with an enzyme immunoassay (EIA) (Amersham, Pharmacia Biotech, Orsay, France) according to the manufacturer's instructions, without knowledge of the subject's P2Y12 genotype.

[2] = platelets from carriers of the H2 haplotype
[3] = platelets from non carriers of the H2 haplotype

Q: How did the maximal aggregation (platelets; citrate-anticoagulated PRP (low Ca++), 10 carriers of the H2 allele) turn out when `Nc1ncnc2c1ncn2[C@@H]1O[C@H](COP(=O)(O)OP(=O)(O)O)[C@@H](O)[C@H]1O` [ADP, adenosine 5′-diphosphate] was run?
A: 71.5%±5.2%

Q: And the maximal aggregation (platelets; citrate-anticoagulated PRP (low Ca++), 10 non carriers of the H2 allele)?
A: 50.7%±7.2%

Q: And the “maximal aggregation in response to ADP (median)” value (from here on “maximal aggregation in response”) (platelets; subjects carrying no H2 alleles (H1/H1, n=74))?
A: 34.7%

Q: And the “maximal aggregation in response” value (platelets; subjects carrying one H2 allele (H1/H2, n=21))?
A: 67.9%

Q: What about the “maximal aggregation in response” value (platelets; subjects carrying two H2 alleles (H2/H2, n=3)) of the same compound?
A: 82.4%

Q: And the maximal aggregation (platelets; hirudin-anticoagulated PRP (physiological Ca++), 10 carriers of the H2 allele)?
A: 53.8%±3.9%

Q: And the maximal aggregation (platelets; hirudin-anticoagulated PRP (physiological Ca++), 10 non carriers of the H2 allele)?
A: 42.8%±3.4%

Q: What about the inhibition at 1 µM [1, 2] of the same compound?
A: 31%

Q: What about the inhibition at 1 µM [1, 3] of the same compound?
A: 13%

Q: What about the inhibition at 2 µM [1, 2] of the same compound?
A: 39%

Q: What about the inhibition at 2 µM [1, 3] of the same compound?
A: 31%

Q: And the inhibition at 5 µM [1, 2]?
A: 50%

Q: What about the inhibition at 5 µM [1, 3] of the same compound?
A: 37%
